From patent US8507471B2, “Biphenylcarboxamide derivatives as hedgehod pathway modulators” (IRM LLC, priority 2007, dated 2013) come the findings set out here.

Assay [1] relates to lymphoma cells expressing luciferase. The experiment in a line: Inhibiting Hh pathway abrogates lymphoma expansion in vivo (bioluminescence imaging). More on the design: species or system syngeneic C57BL/6 mice. To be noted: 50 mg/kg/day. As for the experimental part: Stroma produced hedgehog ligands are important growth and survival factors for primary lymphoma cells under in-vitro culture conditions. Growth and expansion of lymphoma cells in-vivo is also dependent on Hh signalling. 1e6 lymphoma cells expressing luciferase were injected into syngeneic C57BL/6 mice. […] Luciferase levels were measured by bioluminescence imaging 3 times per week. […] Therefore we conclude that hedgehog pathway inhibition reduces lymphoma growth in mice.

For assay [2], the system named is basal cell carcinoma lesions (basaloid nests) in embryonic skin punches. The experiment in a line: Embryonic skin punch assay (Shh-induced basaloid nests). Format: cell-based, Ptch+/−-LacZ mice. Conditions: Mus musculus, completely blocks the basanoid formation, read-out: EC50 to block basanoid formation. As for the experimental part:
Compounds of the invention are tested from their ability to treat non-melanoma skin cancer, i.e. basal cell carcinoma lesions using the skin punch assay. Mouse embryos from Ptch^+/−-LacZ mice, are collected and killed at late gestation (embryonic day 17.5) and their skins excised. Circular punches (4 mm in diameter are placed in a collagen-coated Transwell (BIOCOAT cell Culture Insert, Becton Dickinson Labware, Bedford, Mass.) and cultured at the air-liquid interface, with the epidermis side facing up. The culture medium contains 5% FBS in DMEM/F12 (3:1) with added epidermal growth factor, insulin, and hydrocortisone. To induce formation of basaloid nests, punches are grown in the presence of 1-2 μg/ml Shh for 4 or more days. Effects of compounds of the invention are tested by adding at the time of Shh addition or after 6 days of Shh pretreatment. Compounds of the invention show full inhibition (preventing lesion formation) at concentrations of 1 μM or less.

With `Cc1c(C(=O)Nc2ccc(N3C[C@@H](C)O[C@@H](C)C3)nc2)cccc1-c1ccc(OC(F)(F)F)cc1` [Compound 153, N-(6-((2R,6S)-2,6-dimethylmorpholino)pyridin-3-yl)-2-methyl-4′-(trifluoromethoxy)biphenyl-3-carboxamide], the “lymphoma cell expansion (full efficacy)” value in assay [1] is given as “completely blocks lymphoma cell expansion”. The EC50 in assay [2] was less than 0.2 µM.

One may read the EC50 as the concentration at which the effect is half-maximal.
